According to patent US8927254B2 (priority 2010, dated 2015):
Values after ≈ are worked out from the molar mass of the structure shown. Like-named read-outs stand apart in the source and are kept apart here.

Columns and labels:
[1] = test system: P. furiosus trp deletion strains; assay type: cell-based, Pyrococcus furiosus
P. furiosus = experiment: microbe, parasite or virus in culture; assay type: cell-based; details: Pyrococcus furiosus

SMILES | sensitivity to 5-FAA ([1]; trpAB deletion strain, tight tryptophan auxotroph) | sensitivity to 5-FAA ([1]; trpE or trpD deletion strains, leaky tryptophan auxotrophs) | sensitivity to 5-FAA ([1]; trpF (PF1707) pop-out deletion strain, leaky auxotroph) | MIC (P. furiosus) [mM]
Nc1ccc(F)cc1C(=O)O [5-FAA, 5-fluoroanthranilic acid] | not sensitive | not sensitive | not sensitive | 
O=C(O)c1[nH]c(=O)[nH]c(=O)c1F [5-FOA, 5-fluoroorotic acid] |  |  |  | 8 (≈ 1390 µg/mL)
CCC(C)(C)C(=O)O[C@H]1C[C@@H](C)C=C2C=C[C@H](C)[C@H](CC[C@@H]3C[C@@H](O)CC(=O)O3)[C@H]21 [simvastatin] |  |  |  | 0.01 to 0.024 (≈ 4.19 to 10 µg/mL)
